Drawing on PubChem BioAssay (NCI), this text covers TGI and GI50 for 14 compounds.

Assay in all cases: growth of human tumour cells (NCI), 48 h
The subject of experiment [1] is HCT-116 colon.
For experiment [2], the system named is OVCAR-5 ovarian.
Experiment [3] deals with M14 melanoma.
In experiment [4] the test system is ACHN renal.
Experiment [5] concerns SF-539 CNS.
Experiment [6] relates to SK-MEL-28 melanoma.
For experiment [7], the system named is RPMI-8226 leukemia.
In experiment [8] the test system is SW-620 colon.
The test system of experiment [9] is TK-10 renal.
Experiment [10] concerns BT-549 breast.

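48-hour exposure; five concentrations; linearly interpolated endpoints. At the GI50, growth is halved. At the TGI there is no net growth.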 Bounds are passed on as bounds.

In the case of `CN(C(=O)C12C3C4C1C1C2C3C41C(O)C(C)(C)C)C(C)(C)C` (configuration not stated), the TGI in experiment [1], in experiment [2], in experiment [3], in experiment [4], in [5] and in [6] was over 100 µM each time. The TGI in experiment [7], in experiment [8] and in experiment [9] was over 100 µM each time.

`C=C1CCC2C(C)(CO)C(O)CCC2(C)C1C/C=C1/CCOC1=O` (configuration not stated): the TGI in experiment [1], in [2], in experiment [3], in experiment [4], in [5] and in [7] was over 100 µM throughout. Further, the TGI in experiment [8] and in [9] was over 100 µM in each case.

For `CCOC(=O)C(=O)Nc1ccccc1OCC`, the TGI in experiment [1], in [2], in experiment [3], in experiment [4], in experiment [5] and in [6] was over 100 µM each time. Also, the TGI in experiment [7], in [8] and in experiment [9] was over 100 µM each time.

For `ClC1c2ccccc2C2(c3ccccc3)OOC1(c1ccccc1)O2` (configuration not stated), the TGI in experiment [2] was found to be 11.2 µM; in [3], 2.76 µM; in experiment [4] it was 2.89 µM; in experiment [5], 5.01 µM; in [6], 3.8 µM; in experiment [7], 3.17 µM. Further, the values for the TGI in [8] and in experiment [9] were 2.96 µM and 4.4 µM, respectively.

As to `CCOc1ccc(NCC2CC/C(=C\c3ccc(Cl)cc3)C2=O)cc1` (configuration not stated), the TGI in experiment [1] is over 62.9 µM; in experiment [2], over 100 µM; in [3], 50.6 µM; in experiment [4], over 60.3 µM; in experiment [5] it was over 57 µM; in experiment [6], over 100 µM. The TGI is 10.2 µM in experiment [7], 39.6 µM in experiment [8] and over 65.6 µM in [9].

For the compound `COc1cc(C(O)C(=O)c2cnc3cc([N+](=O)[O-])ccc3n2)ccc1O` (configuration not stated), the TGI in experiment [1], in [3], in [4], in [5], in experiment [7] and in [8] was over 100 µM each time. This compound displayed a TGI in [9] of over 100 µM.

With `Cc1cc(NCc2cc(Nc3ccnc4cc(Cl)ccc34)ccc2F)nc(N2CCSCC2)n1`, the GI50 in experiment [1] is 1.18 µM; in [2] it was 2.21 µM; in [4], 1.7 µM; in experiment [5] it was 1.79 µM; in experiment [7], 1.42 µM; in experiment [9], 1.92 µM. Also, the TGI was determined as 2.46 µM in experiment [1]; 8.25 µM in [2]; 3.53 µM in [4]; 3.35 µM in experiment [5]; 3.96 µM in experiment [7]; 4.68 µM in [9].

As for `CC(O)C(NC(=O)c1ccccc1)C(=O)N(Cc1ccccc1)Cc1ccccc1` (configuration not stated), the TGI in experiment [2], in experiment [3], in experiment [4], in experiment [5], in experiment [6] and in [7] was over 100 µM throughout. The TGI in [8] and in experiment [9] was over 100 µM throughout.

In the case of `CNc1ccc([N+](=O)[O-])c2c(NCCCN(C)C)ccnc12`, the TGI in experiment [1], in experiment [2], in experiment [3], in experiment [4], in experiment [5] and in experiment [6] was over 100 µM throughout. Besides, the TGI in experiment [7], in [8] and in experiment [9] was over 100 µM throughout.

With `N#Cc1cc([N+](=O)[O-])ccc1NC(=O)C(=O)C(C(=O)c1ccc2ccccc2c1)C1OCc2ccccc21` (configuration not stated), the TGI is 16.2 µM in experiment [1]; 29.2 µM in experiment [2]; 30.1 µM in [3]; over 71.1 µM in experiment [4]; 5.83 µM in experiment [5]; 21.4 µM in experiment [6]. In addition, the results for the TGI in [7], in [8] and in experiment [9] were over 66.6 µM, 41.1 µM and 45.8 µM, respectively.

As to `Clc1ccc2nc(Cl)c3ccccc3c2c1`, the GI50 was 4.34 µM in [1]; 22.1 µM in [2]; over 100 µM in experiment [3]; 4.04 µM in experiment [4]; 12 µM in experiment [5]; over 100 µM in experiment [6]. Moreover, the GI50 is 36.1 µM in [10], over 100 µM in [8] and 4.96 µM in [9]. For the same compound, the TGI is 22.1 µM in [1]; over 100 µM in experiment [2]; over 100 µM in [3]; over 100 µM in [4]; 42 µM in experiment [5]; over 100 µM in experiment [6]. Moreover, the TGI in experiment [10] was over 100 µM; in experiment [8], over 100 µM; in experiment [9], 31.8 µM.

Turning to `NC(CCc1ncc(-c2ccccc2)s1)C(=O)O` (configuration not stated), the TGI in [1], in experiment [3], in [4], in experiment [5], in experiment [6] and in experiment [7] was over 100 µM throughout. Further, the TGI in experiment [8] and in experiment [9] was over 100 µM in each case.

For the compound `CC(=O)OCCOCNC(=S)N/N=C(\C)c1cccs1`, the TGI in experiment [1], in [2], in [3], in experiment [4], in experiment [5] and in experiment [6] was over 100 µM throughout. The TGI in experiment [7], in [8] and in experiment [9] was over 100 µM each time.

Turning to `CCCC(=O)c1ccc(=O)n(C)c1`, the TGI in experiment [1], in experiment [2], in [3], in experiment [4], in experiment [5] and in experiment [6] was over 100 µM each time. The TGI in experiment [7], in experiment [8] and in experiment [9] was over 100 µM throughout.
